From PubChem BioAssay AID1963965 (Molecular Pharmacology Branch, DTP, NCI, 2024)
One block for each compound: values may come before it.

System: 996289-038-R-J1-PDC spheroid viability
Test: Anticancer human tumor 996289-038-R-J1-PDC patient-derived colon adenocarcinoma cell line growth inhibition [PI3K]
Settings: spheroids with HUVEC and MSC; for IC50: curve of first compound; for viability, T/C: stronger effect = lower value
Outline: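 We assembled tumor spheroids that included a stromal compartment of HUVEC and MSCs, then exposed them to targeted agents alone and together with PI3K pathway inhibitors. Concentration series descended by half-log from clinically achievable Cmax levels. Viability served as the endpoint.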

[1] = second compound 0.0316 µM, first compound 0.0316 µM
[2] = second compound 0.0316 µM, first compound 0.1 µM
[3] = second compound 0.0316 µM, first compound 0.316 µM
[4] = second compound 0.0316 µM, first compound 1 µM
[5] = second compound 0.0316 µM, first compound 3.16 µM
[6] = second compound 0.0316 µM, first compound 10 µM
[7] = second compound 0.1 µM, first compound 0.0316 µM
[8] = second compound 0.1 µM, first compound 0.1 µM
[9] = second compound 0.1 µM, first compound 0.316 µM
[10] = second compound 0.1 µM, first compound 1 µM
[11] = second compound 0.1 µM, first compound 3.16 µM
[12] = second compound 0.1 µM, first compound 10 µM
[13] = second compound 0.316 µM, first compound 0.0316 µM
[14] = second compound 0.316 µM, first compound 0.1 µM
[15] = second compound 0.316 µM, first compound 0.316 µM
[16] = second compound 0.316 µM, first compound 1 µM
[17] = second compound 0.316 µM, first compound 3.16 µM
[18] = second compound 0.316 µM, first compound 10 µM
[19] = second compound 1 µM, first compound 0.0316 µM
[20] = second compound 1 µM, first compound 0.1 µM
[21] = second compound 1 µM, first compound 0.316 µM
[22] = second compound 1 µM, first compound 1 µM
[23] = second compound 1 µM, first compound 3.16 µM
[24] = second compound 1 µM, first compound 10 µM
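Note: spheroids exposed to compounds for seven days before viability read.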
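Throughout, for viability, T/C: luminescence used as a proxy for viable cell amount; percent viability relative to DMSO vehicle control as 100%.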

IC50 (second compound 0.0316 µM): 1160 nM | IC50 (second compound 0.1 µM): 1510 nM | IC50 (second compound 0.316 µM): 1430 nM | IC50 (second compound 1 µM): 1040 nM | IC50 (second compound 3.16 µM): 681 nM | IC50 (second compound 10 µM): 372 nM
SMILES: C#Cc1c(F)ccc2cc(O)cc(-c3ncc4c(N5CC6CCC(C5)N6)nc(OCC56CCCN5CC(F)C6)nc4c3F)c12 (centres undefined) + CC(Nc1ncnc2nc[nH]c12)c1cc2cccc(Cl)c2c(=O)n1-c1ccccc1
viability, T/C [1]: 101% | viability, T/C [2]: 96.6% | viability, T/C [3]: 69.7% | viability, T/C [4]: 52% | viability, T/C [5]: 45.6% | viability, T/C [6]: 37.2% | viability, T/C [7]: 90.4% | viability, T/C [8]: 76.2% | viability, T/C [9]: 60.6% | viability, T/C [10]: 55.3% | viability, T/C [11]: 46.8% | viability, T/C [12]: 33% | viability, T/C [13]: 95.9% | viability, T/C [14]: 81.8% | viability, T/C [15]: 71.2% | viability, T/C [16]: 54% | viability, T/C [17]: 40% | viability, T/C [18]: 33.7% | viability, T/C [19]: 99.3% | viability, T/C [20]: 79% | viability, T/C [21]: 59.8% | viability, T/C [22]: 57.5% | viability, T/C [23]: 35.6% | viability, T/C [24]: 32.8% | viability, T/C (second compound 3.16 µM, first compound 0.0316 µM): 92.3% | viability, T/C (second compound 3.16 µM, first compound 0.1 µM): 81.6% | viability, T/C (second compound 3.16 µM, first compound 0.316 µM): 63.2% | viability, T/C (second compound 3.16 µM, first compound 1 µM): 42.6% | viability, T/C (second compound 3.16 µM, first compound 3.16 µM): 34.1% | viability, T/C (second compound 3.16 µM, first compound 10 µM): 27.6% | viability, T/C (second compound 10 µM, first compound 0.0316 µM): 78.9% | viability, T/C (second compound 10 µM, first compound 0.1 µM): 74% | viability, T/C (second compound 10 µM, first compound 0.316 µM): 47.8% | viability, T/C (second compound 10 µM, first compound 1 µM): 37.9% | viability, T/C (second compound 10 µM, first compound 3.16 µM): 29.5% | viability, T/C (second compound 10 µM, first compound 10 µM): 20.9%

IC50 (second compound 0.00316 µM): 807 nM | IC50 (second compound 0.01 µM): 507 nM | IC50 (second compound 0.0316 µM): 231 nM | IC50 (second compound 0.1 µM): 57.4 nM | IC50 (second compound 0.316 µM): < 31.6 nM | IC50 (second compound 1 µM): < 31.6 nM
SMILES: C#Cc1c(F)ccc2cc(O)cc(-c3ncc4c(N5CC6CCC(C5)N6)nc(OCC56CCCN5CC(F)C6)nc4c3F)c12 (centres undefined) + COc1c(OCCCN2CCOCC2)ccc2c3n(c(=NC(=O)c4cnc(N)nc4)nc12)CCN3
viability, T/C (second compound 0.00316 µM, first compound 0.0316 µM): 91.4% | viability, T/C (second compound 0.00316 µM, first compound 0.1 µM): 71.3% | viability, T/C (second compound 0.00316 µM, first compound 0.316 µM): 60.9% | viability, T/C (second compound 0.00316 µM, first compound 1 µM): 47.2% | viability, T/C (second compound 0.00316 µM, first compound 3.16 µM): 39.9% | viability, T/C (second compound 0.00316 µM, first compound 10 µM): 35.3% | viability, T/C (second compound 0.01 µM, first compound 0.0316 µM): 79.8% | viability, T/C (second compound 0.01 µM, first compound 0.1 µM): 83.6% | viability, T/C (second compound 0.01 µM, first compound 0.316 µM): 55.4% | viability, T/C (second compound 0.01 µM, first compound 1 µM): 40.3% | viability, T/C (second compound 0.01 µM, first compound 3.16 µM): 31.1% | viability, T/C (second compound 0.01 µM, first compound 10 µM): 26.9% | viability, T/C [1]: 68.7% | viability, T/C [2]: 61.3% | viability, T/C [3]: 45% | viability, T/C [4]: 33.2% | viability, T/C [5]: 25.8% | viability, T/C [6]: 19% | viability, T/C [7]: 55.1% | viability, T/C [8]: 46% | viability, T/C [9]: 29.6% | viability, T/C [10]: 23.1% | viability, T/C [11]: 16.4% | viability, T/C [12]: 14.8% | viability, T/C [13]: 35.3% | viability, T/C [14]: 27.9% | viability, T/C [15]: 19.7% | viability, T/C [16]: 14% | viability, T/C [17]: 10.6% | viability, T/C [18]: 7.75% | viability, T/C [19]: 15.9% | viability, T/C [20]: 16.8% | viability, T/C [21]: 11.1% | viability, T/C [22]: 7.03% | viability, T/C [23]: 5.65% | viability, T/C [24]: 4.52%
